Measurements: PubChem BioAssay AID328 (DTP/NCI, 2004)
Several values for one entry are separate records, joined by “and”; a condition that tells them apart may be missing. Identical values can stand only once. Toxic doses and inconclusive results are not listed. Rule for the calls: active = survival T/C of 150% or more; inactive = T/C below 125% in these data.

Test system: BDF1 mice, P388 leukemia ip, median survival T/C
Experiment: NCI In Vivo Anticancer Drug Screen. Data for tumor model P388 Leukemia (intraperitoneal) in B6D2F1 (BDF1) mice
Settings: endpoint: median survival time, higher = longer survival
Procedure, shortened: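 T/C = treated-group survival ÷ vehicle-control survival; tumour transplanted into mice before dosing.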

Measured: T/C

Cc1c(N)nc([C@H](CC(N)=O)NC[C@H](N)C(N)=O)nc1C(=O)N[C@H](C(=O)N[C@H](C)[C@@H](O)[C@H](C)C(=O)N[C@H](C(=O)NCCc1nc(-c2nc(C(=O)NCCC[S+](C)C)cs2)cs1)[C@@H](C)O)C(OC1OC(CO)C(O)C(O)C1OC1OC(CO)C(O)C(OC(N)=O)C1O)c1cnc[nH]1 (stereo partly drawn)
inactive: dose: 0.12 mg/kg/injection, schedule: Q03HX040 (ip), vehicle: saline 101 % of control | dose: 0.5 mg/kg/injection, schedule: Q03HX040 (ip), vehicle: saline 93 % of control | dose: 1.0 mg/kg/injection, schedule: Q01DX005 (ip), vehicle: water 105 % of control | dose: 1.0 mg/kg/injection, schedule: Q01DX009 (ip), vehicle: water 109 % of control | dose: 2.0 mg/kg/injection, schedule: Q01DX009 (ip), vehicle: saline 112 % of control and 115 % of control | dose: 2.0 mg/kg/injection, schedule: Q01DX009 (ip), vehicle: water 109 % of control | dose: 2.0 mg/kg/injection, schedule: Q03HX008 (ip), vehicle: saline 113 % of control | dose: 2.0 mg/kg/injection, schedule: Q03HX016 (ip), vehicle: saline 109 % of control | dose: 2.88 mg/kg/injection, schedule: Q01DX009 (ip), vehicle: saline 103 % of control | dose: 4.0 mg/kg/injection, schedule: Q01DX005 (ip), vehicle: water 107 % of control | dose: 4.0 mg/kg/injection, schedule: Q01DX009 (ip), vehicle: saline 109 % of control and 110 % of control | dose: 4.0 mg/kg/injection, schedule: Q01DX009 (ip), vehicle: water 98 % of control | dose: 4.0 mg/kg/injection, schedule: Q03HX008 (ip), vehicle: saline 109 % of control and 118 % of control | dose: 4.0 mg/kg/injection, schedule: Q03HX024 (ip), vehicle: saline 118 % of control | dose: 4.0 mg/kg/injection, schedule: Q04DX003 (ip), vehicle: other 124 % of control | dose: 4.8 mg/kg/injection, schedule: Q01DX009 (ip), vehicle: saline 115 % of control | dose: 8.0 mg/kg/injection, schedule: Q01DX005 (ip), vehicle: water 107 % of control | dose: 8.0 mg/kg/injection, schedule: Q01DX009 (ip), vehicle: water 100 % of control | dose: 8.0 mg/kg/injection, schedule: Q03HX008 (ip), vehicle: saline 118 % of control | dose: 8.0 mg/kg/injection, schedule: Q03HX016 (ip), vehicle: saline 122 % of control | dose: 8.0 mg/kg/injection, schedule: Q03HX024 (ip), vehicle: saline 104 % of control and 109 % of control | dose: 8.0 mg/kg/injection, schedule: Q04DX003 (ip), vehicle: other 108 % of control | dose: 10.8 mg/kg/injection, schedule: Q01DX009 (ip), vehicle: saline 110 % of control | dose: 12.0 mg/kg/injection, schedule: Q01DX009 (ip), vehicle: saline 117 % of control | dose: 13.0 mg/kg/injection, schedule: Q01DX001 (ip), vehicle: saline 113 % of control | dose: 13.33 mg/kg/injection, schedule: Q01DX009 (ip), vehicle: saline 119 % of control | dose: 13.33 mg/kg/injection, schedule: Q04DX003 (ip), vehicle: saline 100 % of control | dose: 16.0 mg/kg/injection, schedule: Q01DX001 (ip), vehicle: saline 118 % of control and 122 % of control | dose: 16.0 mg/kg/injection, schedule: Q01DX005 (ip), vehicle: water 109 % of control | dose: 16.0 mg/kg/injection, schedule: Q01DX009 (ip), vehicle: water 86 % of control | dose: 16.0 mg/kg/injection, schedule: Q03HX008 (ip), vehicle: saline 90 % of control and 122 % of control | dose: 16.0 mg/kg/injection, schedule: Q03HX016 (ip), vehicle: saline 104 % of control | dose: 18.0 mg/kg/injection, schedule: Q01DX009 (ip), vehicle: saline 95 % of control and 98 % of control | dose: 20.0 mg/kg/injection, schedule: Q01DX001 (ip), vehicle: saline 113 % of control | dose: 22.22 mg/kg/injection, schedule: Q04DX003 (ip), vehicle: saline 106 % of control | dose: 30.0 mg/kg/injection, schedule: Q01DX001 (ip), vehicle: saline 109 % of control | dose: 30.0 mg/kg/injection, schedule: Q01DX009 (ip), vehicle: saline 86 % of control | dose: 32.0 mg/kg/injection, schedule: Q01DX001 (ip), vehicle: saline 122 % of control | dose: 32.0 mg/kg/injection, schedule: Q04DX003 (ip), vehicle: other 101 % of control | dose: 32.0 mg/kg/injection, schedule: Q04DX003 (ip), vehicle: saline 100 % of control | dose: 32.0 mg/kg/injection, schedule: Q08DX002 (ip), vehicle: saline 109 % of control | dose: 37.0 mg/kg/injection, schedule: Q04DX003 (ip), vehicle: saline 110 % of control | dose: 44.0 mg/kg/injection, schedule: Q01DX001 (ip), vehicle: saline 113 % of control and 118 % of control | dose: 61.7 mg/kg/injection, schedule: Q04DX003 (ip), vehicle: saline 105 % of control | dose: 64.0 mg/kg/injection, schedule: Q01DX001 (ip), vehicle: saline 104 % of control and 118 % of control | dose: 64.0 mg/kg/injection, schedule: Q01DX009 (ip), vehicle: saline 95 % of control | dose: 64.0 mg/kg/injection, schedule: Q04DX003 (ip), vehicle: saline 109 % of control | dose: 64.0 mg/kg/injection, schedule: Q08DX002 (ip), vehicle: saline 122 % of control | dose: 67.0 mg/kg/injection, schedule: Q01DX001 (ip), vehicle: saline 113 % of control | dose: 100.0 mg/kg/injection, schedule: Q01DX001 (ip), vehicle: saline 108 % of control | dose: 128.0 mg/kg/injection, schedule: Q01DX001 (ip), vehicle: saline 118 % of control | dose: 128.0 mg/kg/injection, schedule: Q04DX003 (ip), vehicle: saline 100 % of control | dose: 128.0 mg/kg/injection, schedule: Q08DX002 (ip), vehicle: saline 104 % of control and 118 % of control
